Test in all cases: NCI tumour cell line growth inhibition, 48 h
The test system of test [1] is SK-MEL-2 melanoma.
The subject of test [2] is MDA-MB-231 breast.
The subject of test [3] is A549 NSCLC.
Test [4] deals with SK-MEL-28 melanoma.
The subject of test [5] is OVCAR-5 ovarian.
Test [6] deals with ACHN renal.
The subject of test [7] is SF-295 CNS.
The test system of test [8] is NCI-H522 lung.
For test [9], the system named is SR leukemia.
Test [10] concerns SNB-75 CNS.

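Values below derive from 48-hour exposures of cells grown in 96-well plates, with endpoints linearly interpolated between the two concentrations bracketing the appropriate inhibition level. The concentration for 50% growth inhibition is given as GI50. The concentration for full growth arrest is given as TGI.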

Take `N#CC1=C(N)Oc2c(ccc3ccccc23)C1c1cc2ccccc2n2nnnc12` (centres undefined): the GI50 is 0.616 µM in test [1]; 0.976 µM in test [2]; 3.02 µM in test [3]; 4.04 µM in [4]; 2.76 µM in [5]; 1.71 µM in [6]. Also, the GI50 is 0.832 µM in test [7], 407 nM in test [8] and 0.232 µM in [9]. The TGI was 6.84 µM in [1]; above 100 µM in test [2]; above 100 µM in test [3]; above 100 µM in [4]; above 100 µM in [5]; above 100 µM in test [6]. The TGI is above 100 µM in [7], 2.9 µM in [8] and above 100 µM in test [9].

`COc1ccc([C@@H]2[C@@H](Oc3ccccc3)C(=O)N2c2cc(OC)c(OC)c(OC)c2)cc1F`: the GI50 in test [1] was 0.447 µM; in [2], 0.298 µM; in [3] it was 0.209 µM; in test [10], 0.0567 µM; in test [4], 0.26 µM; in test [5], 0.421 µM. The GI50 in [6] is 0.0699 µM; in [7], 0.0785 µM; in test [8] it was 27.6 nM; in test [9] it was 0.0778 µM. Besides, the TGI in [1], in test [2], in test [3], in test [10], in test [4] and in test [5] was above 100 µM each time. Moreover, the TGI was above 100 µM in test [6], above 100 µM in [7], 0.332 µM in [8] and above 100 µM in [9].

Take `CCCCCCCCCCN=C(N)c1ccc(N2CCN(c3ccc(C(N)=NCCCCCCCCCC)cc3)CC2)cc1`: the GI50 in test [1] is 7.74 µM; in [2], 2.95 µM; in test [3], 3.32 µM; in [10], 2.34 µM; in [4], 4.76 µM; in [5], 5.25 µM. In addition, the GI50 in [6] is 15.7 µM; in [7], 1.81 µM; in test [8], 3750 nM; in [9], above 50 µM. The TGI was above 50 µM in test [1]; 17.9 µM in test [2]; above 50 µM in test [3]; above 50 µM in [10]; 36 µM in test [4]; above 50 µM in test [5]. For the same compound, the TGI is above 50 µM in test [6], 6.12 µM in test [7], above 50 µM in test [8] and above 50 µM in test [9].

Regarding `O=C1NC(c2ccccc2Cl)Nc2ccccc21` (centres undefined), the TGI in [1] was 48.7 µM; in [2] it was above 100 µM; in test [3] it was above 100 µM; in test [10], 49.1 µM; in [4], above 100 µM; in [5], above 100 µM. For the same compound, the TGI in test [6] is above 100 µM; in test [7] it was above 72.3 µM; in test [8], 72.1 µM; in [9], above 100 µM.

`CC(C)c1ccc2c(c1)CCC1C2CCCC1(C)NCc1ccccc1` (centres undefined): the GI50 in [1] is 2.04 µM; in test [2], 3.31 µM; in test [3], 15.5 µM; in [10], 8.77 µM; in [4] it was 1.98 µM; in test [5], 3.48 µM. In addition, the GI50 in [6] was 10 µM; in test [7] it was 2.17 µM; in test [8], 1680 nM; in test [9] it was 1.8 µM. Further, the TGI in test [1] was determined as 4.16 µM; in test [2] it was 12.4 µM; in [3], 31.1 µM; in test [10] it was 21.3 µM; in test [4], 3.83 µM; in test [5], 13.6 µM. Besides, the TGI is 22.7 µM in test [6], 6.17 µM in [7], 3.55 µM in test [8] and 6.3 µM in test [9].

For the compound `CC[C@]12C=CCN3CC[C@@]4(c5ccc(OC)cc5N(C)[C@H]4[C@@](O)(C(=O)OC)[C@@H]1OC(=O)CCCN1CCN(CCCC(=O)O[C@@H]4[C@]5(CC)C=CCN6CC[C@@]7(c8ccc(OC)cc8N(C)[C@H]7[C@@]4(O)C(=O)OC)[C@@H]65)CC1)[C@@H]32`, the GI50 in test [1] is 1.88 µM; in [2], 0.665 µM; in test [3], 1.31 µM; in test [10], 0.564 µM; in test [4], 1.4 µM; in [5] it was 1.82 µM. For the same compound, the GI50 was 0.857 µM in test [6], 1.74 µM in test [7], 1780 nM in test [8] and 0.252 µM in test [9]. The TGI was found to be 3.59 µM in test [1]; 2.02 µM in test [2]; 2.95 µM in [3]; 1.95 µM in [10]; 2.78 µM in test [4]; 3.47 µM in test [5]. Moreover, the TGI in test [6] was found to be 2.07 µM; in test [7], 3.16 µM; in test [8] it was 3.52 µM; in [9], 0.738 µM.

With `C#CCCCCCC(=O)N[C@H]1C=C[C@@H]2/C=C(C)/C=C/[C@@H](C)[C@H]([C@H](C)[C@H](O)[C@@H](C)NC(C)=O)OC(=O)/C=C/C=C(C)\C=C\[C@]2(C)C1`, the GI50 in test [1] was 4.87 µM; in test [2] it was below 0.004 µM; in [3] it was below 0.004 µM; in [10] it was 0.0127 µM; in [4] it was 0.00795 µM; in [5], 6.53 µM. The GI50 in test [6] is below 0.004 µM; in test [7], below 0.004 µM; in test [8], 9.1 nM; in test [9], below 0.004 µM. For the same compound, the TGI in [1] is above 40 µM; in [2] it was below 0.004 µM; in test [3] it was above 40 µM; in test [10] it was above 40 µM; in [4] it was 12.3 µM; in test [5], above 40 µM. Besides, the TGI is above 40 µM in test [6], 0.0182 µM in test [7], 14.2 µM in test [8] and 9.53 µM in test [9].

`C/C(=C\c1csc(C)n1)[C@@H]1C[C@@H]2O[C@]2(C)CCC[C@H](C)[C@H](O)[C@@H](C)C(=O)C(C)(C)[C@@H](O)CC(=O)N1`: the GI50 was below 1e-05 µM in test [1]; 0.000312 µM in test [2]; 9.28e-05 µM in test [3]; 0.00161 µM in [10]; 0.000219 µM in test [4]; 0.000262 µM in test [5]. For the same compound, the GI50 was 0.000324 µM in [6], 0.000156 µM in test [7], 0.0757 nM in test [8] and 0.00102 µM in test [9]. Further, the TGI in [1] is below 1e-05 µM; in [2], 0.000479 µM; in test [3], 0.000294 µM; in test [10], 0.048 µM; in [4], 0.000436 µM; in test [5], 0.000447 µM. The TGI in test [6] was found to be 0.000478 µM; in test [7], 0.000423 µM; in test [8], 0.00019 µM; in [9], 0.00332 µM.

Regarding `CN1CCN(C(=O)/C=C/c2ccc([N+](=O)[O-])o2)CC1`, the GI50 was 6.5 µM in test [1]; 14.3 µM in test [2]; 18.8 µM in [3]; 21.6 µM in test [10]; 9.59 µM in [4]; 22.3 µM in [5]. Further, the GI50 is 3.29 µM in test [6], 27.9 µM in test [7], 2720 nM in test [8] and 4.23 µM in test [9]. Also, the TGI in [1] amounted to 29.6 µM; in test [2], 34.7 µM; in [3], 41.5 µM; in test [10], 75.8 µM; in test [4], 49.3 µM; in test [5], 39.1 µM. Further, the TGI in test [6] was 13.1 µM; in [7], above 100 µM; in test [8] it was 5.74 µM; in test [9], 75.1 µM.

For `COc1cc(/C=C/C(=O)c2nc3cc(F)ccc3nc2C)cc(OC)c1OC`, the GI50 in [1] is 34.5 µM; in test [2], 8.49 µM; in test [3], 7.37 µM; in test [10], 9.3 µM; in test [4] it was 7.91 µM; in test [5], above 100 µM. For the same compound, the GI50 in test [6] is 10.3 µM; in test [7] it was above 25.2 µM; in test [8], 6980 nM; in test [9] it was 1.85 µM. Also, the TGI is above 100 µM in [1]; above 100 µM in test [2]; above 100 µM in [3]; above 100 µM in test [10]; above 60.3 µM in [4]; above 100 µM in test [5]. Further, the TGI in test [6], in test [7], in test [8] and in [9] was above 100 µM throughout.

In the case of `CC(=O)O[C@H]1C[C@@H]2[C@@]3(C)CC[C@H]4C[C@@]4(C)[C@@H]3CC[C@@]2(C)C2=CCC3=C(COC3=O)[C@]21C`, the GI50 in test [1] was 36.3 µM; in test [2] it was 15.8 µM; in test [3], 20.8 µM; in test [10], 23.1 µM; in test [4], 21.6 µM; in test [5] it was 19.3 µM. Besides, the GI50 is 21.5 µM in test [6], 19.6 µM in test [7], 24500 nM in [8] and above 100 µM in [9]. The TGI in [1] was above 100 µM; in [2], 35.9 µM; in test [3] it was 44.4 µM; in test [10], 51.2 µM; in test [4] it was 44 µM; in test [5] it was 39.5 µM. Further, the TGI in test [6] is 43.9 µM; in test [7], 40.9 µM; in test [8] it was 84.1 µM; in test [9], above 100 µM.

`CCOC(=O)C#Cc1c(C(=O)OCC)nnn1[C@@H]1O[C@H](COC)[C@@H](OC)[C@H]1OC`: the GI50 in test [1] was 16.6 µM; in test [2], 10.7 µM; in [3], 20.9 µM; in test [10] it was 11.9 µM; in test [4], 3.49 µM; in test [5] it was 16.2 µM. Further, the GI50 is 1.95 µM in test [6], above 100 µM in test [7], 1970 nM in test [8] and 1.64 µM in test [9]. Moreover, the TGI in test [1] stood at 32.9 µM; in test [2], 25.1 µM; in [3], 40.4 µM; in [10] it was 24.2 µM; in test [4] it was 12.8 µM; in test [5], 32.7 µM. Also, the TGI in test [6] is 3.9 µM; in [7], above 100 µM; in [8] it was 3.9 µM; in test [9] it was 4.66 µM.

Turning to `NS(=O)(=O)c1cc2c(cc1Cl)NCNS2(=O)=O`, the TGI in test [1], in test [2], in test [3], in [10], in test [4] and in test [5] was above 100 µM each time. The TGI in test [6], in [7], in [8] and in test [9] was above 100 µM each time.

Regarding `O=C(NO)c1ccc(CNc2cccc3nc(C4CC4)n(-c4ccccc4)c(=O)c23)cc1`, the GI50 was 2.76 µM in test [1]; 2.31 µM in test [2]; 2.23 µM in test [3]; 1.78 µM in test [10]; 2.01 µM in [4]; 2.06 µM in [5]. Further, the GI50 is 1.92 µM in test [6], 1470 nM in test [8] and 0.877 µM in [9]. The TGI in test [1] was determined as 7.45 µM; in test [2], 7.33 µM; in [3], 5.74 µM; in test [10] it was 5.93 µM; in [4], 4.26 µM; in test [5], 6.1 µM. Besides, the figures for the TGI in test [6], in test [8] and in test [9] were 4.67 µM, 3.38 µM and above 100 µM, respectively.

On to `O=C1c2ccccc2-c2c1c1c(O)cccc1n2Cc1ccccc1`, for which the GI50 is 39.7 µM in test [1]; above 100 µM in [2]; 16.8 µM in [3]; 20.8 µM in test [4]; 16.4 µM in [5]; 6.9 µM in test [6]. The GI50 was 6.12 µM in test [7], 40000 nM in [8] and 30.5 µM in [9]. Also, the TGI in test [1] was above 100 µM; in [2], above 100 µM; in [3], above 100 µM; in [4], 62.4 µM; in test [5], 51.2 µM; in [6], 23.8 µM. Also, the TGI was 18.4 µM in test [7], above 100 µM in [8] and above 100 µM in test [9].

For the origin of these results see PubChem BioAssay (NCI).
